In US6362207B1, “Methods of treating viral infections with benzimidazoles” (priority 1995, dated 2002):
Like-named read-outs stand apart in the source and are kept apart here.

What was measured:
HT29 colon tumor cells = experiment: MTT cell viability test, colon tumor cells; format: cell-based, human; settings: MTT, 5 day incubation
[1] = tested on: MCF7 (breast cancer) cells; experiment: Apoptosis study (TdT assay) and cell growth; format: cell-based, human
Protocol: Summary of test results: The extent of apoptosis is measured in human tumor cell lines after treatment for 1, 2, 3 and 4 days with carbendazim. At each of these time points, the cells are harvested and assayed using the terminal deoxynucleotidyl transferase (TdT) assays. Both microscopy and flow cytometry were used for the TdT assay.
In MCF7, HT29, B16 and SK-MES cell lines, there was a concentration dependent effect on cell growth. […] After completion of the studies on the MCF7 and HT29 cell lines, it was evident that the 0.1 μg/ml concentration had little effect on either apoptosis or cell growth. Therefore subsequent assays were with 5 μg/ml instead of 0.1 μg/ml.
However, at 10 μg/ml the increase in apoptosis was evident at days 3 and 4. The increase in apoptosis was low, less than 10% at the high concentration.

Rhabdomysarcoma = Rhabdomysarcoma model, tumor weight; format: in vivo; settings: 3000 (mg/kg) group, once weekly p.o.
Text: The dose response effect of carbendazim in mice infected with various cancer types was studied in standard screening tests.
The results of these studies conducted to study the dosage response of carbendazim on various cancer types are summarized below. […] Efficacy of carbendazim has been shown in the following cancers:
In the Rhabdomysarcoma model, a childhood cancer, at day 29 carbendazim at doses of 3000, 4000 and 5000 (mg/kg given once weekly, p.o.) is quite effective against this tumor with no toxicity in the 3000 (mg/kg) group. Topotecan (i.p., qd×5) is quite active against this model.

P388 = experiment: P-388 model for leukemia, T/C; format: in vivo, mice
Text: In the P-388 model for leukemia there was a dose responsive effect and the results were good.
The NCI Measure of Success is T/C=125.

[2] = format: in vivo
Text: Additional in vivo cancer studies are presented in a tabular form below. The data is presented in the following format—dose regimen in parenthesis, dosage in mg/kg: tumor growth suppression (tg supp.), toxic deaths/number of test subjects (deaths), % weight change (wt).

[3] = tested on: MX1 breast cancer tumors implanted subcutaneously; experiment: Tumor growth reduction in mice models (Table 5), breast; format: in vivo; settings: MXI-breast
lung = format: in vivo; settings: A549-lung, 500 mg/kg
colon = experiment: Tumor growth reduction in mice models (Tables 5 and 6), colon; format: in vivo; settings: HT29-colon, 2500 mg/kg
herpes = experiment: In vivo herpes screening test; set-up: species or system mice; settings: mouse, in vivo
Protocol: The positive control was acyclovir at 75 mg/kg dose; 60% of the mice survived with a mean death date of 17.2 days.

influenza = experiment: In vivo model for influenza; set-up: species or system mice; settings: mouse, in vivo
Protocol: The positive control was amantadine (75 mg/kg) with 100% of the mice surviving for 21 days. 2-(Methoxycarbonylamino)benzimidazole was not active in the same test.

rhinovirus = experiment: In vitro rhinovirus model; format: cell-based
[4] = DU-145, 4000 mg/kg twice weekly
[5] = DU-145, 5000 mg/kg twice weekly
[6] = DU-145, 6000 mg/kg twice weekly
[7] = HT29 (colon), 2000 mg/kg twice weekly
[8] = HT29 (colon), 3000 mg/kg twice weekly
[9] = HT29 (colon), 4000 mg/kg twice weekly
[10] = HT29 (colon), 5000 mg/kg twice weekly
[11] = HT29 (colon), 6000 mg/kg twice weekly
[12] = MCF-7L (breast), 4000 mg/kg twice weekly
[13] = MCF-7L (breast), 5000 mg/kg twice weekly
[14] = MX1 xenograft, 4000 mg/kg twice weekly
[15] = MX1 xenograft, 5000 mg/kg twice weekly
[16] = MX1 xenograft, 6000 mg/kg twice weekly
[17] = SK-MES, 4000 mg/kg twice weekly
[18] = SK-MES, 5000 mg/kg twice weekly
[19] = SK-MES, 6000 mg/kg twice weekly

## COC(=O)Nc1nc2ccccc2[nH]1 [carbendazim, 2-methoxycarbonylamino-benzimidazole]
HT29 colon tumor cells; HT29, first column
  EC-50 Result: 0.621 ppm
HT29 colon tumor cells; HT29, second column
  EC-50 Result: 0.662 ppm
[1]; 10 μg/ml (high concentration), days 3 and 4
  increase in apoptosis: below 10%
[1]; below 10 μg/ml
  cell growth: not significantly affected
Rhabdomysarcoma
  toxicity: no toxicity
P388; 500 mg/kg twice weekly
  T/C: 141
  weight change (%): −0.64%
P388; 1000 mg/kg twice weekly
  T/C: 176
  weight change (%): −4.75%
P388; 1250 mg/kg twice weekly
  T/C: 124
  weight change (%): +1.99%
P388; 2000 mg/kg twice weekly
  T/C: 169
  weight change (%): −11.63%
P388; 2500 mg/kg twice weekly
  T/C: 169
  weight change (%): +3.16%
P388; 5000 mg/kg twice weekly
  T/C: 198
  weight change (%): −0.64%
P388; P388-luekemia, 1000 mg/kg
  Increased Life Span: 129%
P388; P388-luekemia, 2000 mg/kg
  Increased Life Span: 148%
P388; P388-luekemia, 4000 mg/kg, printed in column Increased Life Span
  decreased life span: 9%
[2]; A549 (lung), 500 mg/kg
  % weight change (wt): +10%
  toxic deaths/number of test subjects (deaths): 0/10
  tumor growth suppression (tg supp.): 57%
[2]; A549 (lung), 2500 mg/kg
  toxic deaths/number of test subjects (deaths): 10/10
[2]; [4]
  % weight change (wt): −5%
  toxic deaths/number of test subjects (deaths): 0/10
  tumor growth suppression (tg supp.): 52%
[2]; [5]
  % weight change (wt): −8%
  toxic deaths/number of test subjects (deaths): 1/10
  tumor growth suppression (tg supp.): 48%
[2]; [6]
  % weight change (wt): −6%
  toxic deaths/number of test subjects (deaths): 1/10
  tumor growth suppression (tg supp.): 33%
[2]; [7]
  % weight change (wt): +3%
  toxic deaths/number of test subjects (deaths): 0/10
  tumor growth suppression (tg supp.): 36%
[2]; [8]
  % weight change (wt): −6%
  toxic deaths/number of test subjects (deaths): 2/10
  tumor growth suppression (tg supp.): 65%
[2]; [9]
  % weight change (wt): −12%
  toxic deaths/number of test subjects (deaths): 3/10
  tumor growth suppression (tg supp.): 78%
[2]; [10]
  % weight change (wt): −8%
  toxic deaths/number of test subjects (deaths): 2/10
  tumor growth suppression (tg supp.): 79%
[2]; [11]
  % weight change (wt): −25%
  toxic deaths/number of test subjects (deaths): 9/10
  tumor growth suppression (tg supp.): 97%
[2]; [12]
  % weight change (wt): −7%
  toxic deaths/number of test subjects (deaths): 5/10
  tumor growth suppression (tg supp.): 94%
[2]; [13]
  % weight change (wt): −8%
  toxic deaths/number of test subjects (deaths): 7/10
  tumor growth suppression (tg supp.): 100%
[2]; MCF-7L (breast), 6000 mg/kg twice weekly
  toxic deaths/number of test subjects (deaths): 10/10
[2]; [14]
  % weight change (wt): −1%
  toxic deaths/number of test subjects (deaths): 0/10
  tumor growth suppression (tg supp.): 48%
[2]; [15]
  % weight change (wt): −4%
  toxic deaths/number of test subjects (deaths): 1/10
  tumor growth suppression (tg supp.): 63%
[2]; [16]
  % weight change (wt): −4%
  toxic deaths/number of test subjects (deaths): 1/9
  tumor growth suppression (tg supp.): 70%
[2]; [17]
  % weight change (wt): +3%
  toxic deaths/number of test subjects (deaths): 2/10
  tumor growth suppression (tg supp.): 45%
[2]; [18]
  % weight change (wt): +2%
  toxic deaths/number of test subjects (deaths): 1/10
  tumor growth suppression (tg supp.): 44%
[2]; [19]
  % weight change (wt): −2%
  toxic deaths/number of test subjects (deaths): 3/10
  tumor growth suppression (tg supp.): 69%
[3]; 500 mg/kg
  Tumor Growth Decrease (%): 42%
[3]; 2500 mg/kg
  Tumor Growth Decrease (%): 37%
lung
  Tumor Growth Decrease (%): 57%
colon
  Tumor Growth Decrease (%): 54%
herpes
  activity: no activity
influenza
  activity: not active
rhinovirus
  therapeutic index (TI), ratio of toxic dose to efficacious dose: 1-3
